Results on eleven compounds are retold here after ChEMBL document CHEMBL1201862, “PubChem BioAssay data set” (2004).

Common to all, as to test: growth of human tumour cells (NCI), 48 h
In assay [1] the test system is 786-0.
Assay [2] deals with CCRF-CEM.
Assay [3] has as its system COLO 205.
The test system of assay [4] is EKVX.
In assay [5] the test system is HL-60.
Assay [6] deals with HOP-62.
Assay [7] has as its system HOP-92.
Assay [8] concerns IGROV-1.
The test system of assay [9] is KM12.
Assay [10] deals with LOX IMVI.
Assay [11] deals with MCF7.
Assay [12] concerns NCI-H226.
Assay [13] deals with NCI-H23.
Assay [14] relates to OVCAR-3.
Assay [15] relates to OVCAR-5.
Assay [16] concerns SK-MEL-5.
The subject of assay [17] is T47D.
The test system of assay [18] is TK-10.
In assay [19] the test system is SK-MEL-28.
The test system of assay [20] is OVCAR-4.

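How tested: cells in 96-well plates exposed to compound for 48 hours at five concentrations. The concentration for 50% growth inhibition is given as GI50.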 Calls of active or inactive are those of the source. No stated cut-off is given here; in the data, active = GI50 up to about 1.1 µM and inactive = higher. A value given as a limit tells only on which side of the number the result lay.

As for `CC(C)(C)OC(=O)N1N=CCC1c1ccccc1` (stereo not given), the GI50 in assay [1] was > 100 µM (inactive); in assay [2] it was 56.2 µM (inactive); in [3], > 100 µM (inactive); in assay [4], > 100 µM (inactive); in [5], > 100 µM (inactive); in assay [6], > 100 µM (inactive). The GI50 in assay [7], in [8], in [9], in assay [10], in assay [11] and in assay [12] was > 100 µM (inactive) in each case. Further, the GI50 in assay [13], in [14], in assay [15], in [16], in assay [17] and in assay [18] was > 100 µM (inactive) in each case.

Regarding `CC1(C)SC2C(NC(=O)C(C(=O)O)c3ccccc3)C(=O)N2C1C(=O)O` (stereo not given), the GI50 in assay [1], in assay [2], in assay [3], in [4], in [5] and in [6] was > 100 µM (inactive) each time. In addition, the GI50 in [8], in assay [9], in assay [10], in assay [11], in assay [12] and in [13] was > 100 µM (inactive) throughout. The GI50 in assay [14], in assay [15], in [19], in assay [16], in [17] and in [18] was > 100 µM (inactive) throughout.

Regarding `N#CC12COC3(CCCCC3C1(C#N)C#N)OC2=N` (stereo not given), the GI50 was 19.2 µM (inactive) in [1]; 3.53 µM (inactive) in [2]; 6.4 µM (inactive) in [3]; 18.5 µM (inactive) in assay [4]; 2.91 µM (inactive) in assay [5]; 5.06 µM (inactive) in [7]. The GI50 is 14.6 µM (inactive) in assay [8]; > 10 µM (inactive) in assay [9]; 12.9 µM (inactive) in assay [10]; 11.7 µM (inactive) in assay [11]; 22.9 µM (inactive) in assay [12]; 16.7 µM (inactive) in assay [13]. Besides, the GI50 in [14] is 11.1 µM (inactive); in assay [15], 16.6 µM (inactive); in [19] it was 14.6 µM (inactive); in [16] it was 11.4 µM (inactive); in assay [17], 11 µM (inactive); in assay [18] it was 16.2 µM (inactive).

For the compound `CC(=O)C1=C(C)N2C(=NC3=C(CCc4ccccc43)C2c2cccc(Br)c2)S1` (stereo not given), the GI50 in assay [1] is > 100 µM (inactive); in assay [2], 69.7 µM (inactive); in assay [3], 88.1 µM (inactive); in assay [4], 11.4 µM (inactive); in [5], 25.8 µM (inactive); in [6], > 100 µM (inactive). In addition, the GI50 in [7] is > 100 µM (inactive); in assay [8], 48.2 µM (inactive); in [9] it was 49.7 µM (inactive); in assay [10], 76.4 µM (inactive); in [11] it was > 100 µM (inactive); in assay [12], 79.6 µM (inactive). In addition, the GI50 in [13] was 99.1 µM (inactive); in assay [14] it was 93.1 µM (inactive); in assay [20], > 100 µM (inactive); in assay [15] it was > 100 µM (inactive); in assay [19], > 100 µM (inactive); in [16], 41.3 µM (inactive). Also, the GI50 in assay [17] was > 100 µM (inactive).

In the case of `Cn1cnc(N)c(N=O)c1=O`, the GI50 in assay [1], in assay [2], in [3], in assay [4], in assay [5] and in assay [6] was > 10 µM (inactive) throughout. Further, the GI50 in assay [8], in [9], in [10], in [11], in assay [12] and in [13] was > 10 µM (inactive) throughout. Moreover, the GI50 in [14], in assay [20], in assay [15], in [19], in assay [16] and in assay [17] was > 10 µM (inactive) throughout. Further, in assay [18], the GI50 is > 10 µM (inactive).

`COc1ccc(C(=O)Nc2ccc(O)c(=O)cc2)cc1`: the GI50 is 51.1 µM (inactive) in assay [1]; 24 µM (inactive) in [2]; 24.2 µM (inactive) in assay [3]; 21.4 µM (inactive) in [4]; 21.3 µM (inactive) in [5]; 80.9 µM (inactive) in assay [6]. Besides, the GI50 is 37.9 µM (inactive) in assay [8]; 39.4 µM (inactive) in [9]; 38.7 µM (inactive) in assay [10]; 21.5 µM (inactive) in [11]; > 100 µM (inactive) in [12]; 89.7 µM (inactive) in [13]. The GI50 in assay [14] is 27.6 µM (inactive); in assay [15] it was > 100 µM (inactive); in [19] it was 22.5 µM (inactive); in [16], 41.6 µM (inactive); in [17] it was < 0.01 µM (active); in [18], 53 µM (inactive).

On to `C/C(=N\OCC(O)CNCCSCc1ccccc1)c1ccccc1Cl` (stereo not given), for which the GI50 in assay [1] is 21.4 µM (inactive); in assay [2] it was 28.6 µM (inactive); in assay [3], 19.2 µM (inactive); in [4], 20 µM (inactive); in assay [5], 24 µM (inactive); in assay [6], 19.4 µM (inactive). In addition, the GI50 in assay [7] is 13.2 µM (inactive); in [9], 18.6 µM (inactive); in assay [10], 16.8 µM (inactive); in [11], 19.8 µM (inactive); in assay [12], 17.6 µM (inactive); in [13] it was 37.5 µM (inactive). Further, the GI50 in [14] was 17.9 µM (inactive); in assay [15], 19.3 µM (inactive); in assay [19], 20.7 µM (inactive); in [16] it was 17.1 µM (inactive); in assay [17] it was 22.6 µM (inactive); in [18], 17 µM (inactive).

For the compound `COc1cc(/C=N/NC(=O)c2c(Cl)c(Cl)c(Cl)c(Cl)c2-c2nc3ccccc3[nH]2)ccc1O`, the GI50 in assay [1] is 28 µM (inactive); in assay [2], 21.9 µM (inactive); in assay [3] it was 22.3 µM (inactive); in [4] it was 19.2 µM (inactive); in assay [5], 21.2 µM (inactive); in [6] it was 21.6 µM (inactive). Besides, the GI50 in assay [7] is 10.8 µM (inactive); in assay [8], 14 µM (inactive); in assay [9], 24.2 µM (inactive); in [10] it was 22.4 µM (inactive); in assay [11], 16.9 µM (inactive); in assay [12], 21.3 µM (inactive). In addition, the GI50 was 19.9 µM (inactive) in assay [13]; 27.3 µM (inactive) in [14]; 27.9 µM (inactive) in [15]; 33.6 µM (inactive) in assay [19]; 14.9 µM (inactive) in assay [16]; 0.56 µM (active) in assay [17].

Take `Nc1ncnc2c1nc(Cl)n2C1OC2COP(=O)(O)OC2C1O` (stereo not given): the GI50 in assay [1] is 5.04 µM (inactive); in assay [2], 1.29 µM (inactive); in assay [3], 5.55 µM (inactive); in assay [4], 22.4 µM (inactive); in assay [5], 1.23 µM (inactive); in [8], 11 µM (inactive). Moreover, the GI50 was 41.6 µM (inactive) in assay [9]; 1.19 µM (inactive) in [10]; 3.49 µM (inactive) in assay [11]; 3.41 µM (inactive) in assay [12]; 7.24 µM (inactive) in [13]; 12.2 µM (inactive) in [14]. The GI50 is 24.2 µM (inactive) in assay [20]; 23.3 µM (inactive) in [15]; > 87.9 µM (inactive) in assay [19]; > 47.4 µM (inactive) in [16]; 2.38 µM (inactive) in assay [17]; 6.49 µM (inactive) in assay [18].

For `S=C(NCCc1ccccn1)c1nc[nH]c1C(=S)NCCc1ccccn1`, the GI50 was 53.3 µM (inactive) in [1]; 26.1 µM (inactive) in [2]; 49.7 µM (inactive) in assay [3]; 83.8 µM (inactive) in assay [4]; 37.1 µM (inactive) in [6]; 53.6 µM (inactive) in assay [7]. The GI50 in assay [8] was 34.9 µM (inactive); in [9], 24 µM (inactive); in [10], 20.7 µM (inactive); in assay [11], 36.1 µM (inactive); in assay [12], 46.8 µM (inactive); in [13] it was 39.4 µM (inactive). Moreover, the GI50 in assay [14] was 37.9 µM (inactive); in assay [20], 33.8 µM (inactive); in assay [15], > 100 µM (inactive); in [19] it was 52.4 µM (inactive); in [16], 31.7 µM (inactive); in assay [17], 23.5 µM (inactive). In addition, the GI50 in assay [18] is 62.1 µM (inactive).

`N=C(N)c1ccc2oc3ccc(C(=N)N)cc3c(=O)c2c1`: the GI50 in assay [1], in [2], in assay [3], in assay [5], in [7] and in assay [8] was > 100 µM (inactive) throughout. Further, the GI50 in [9] was > 100 µM (inactive); in [11], 60.4 µM (inactive); in assay [12], > 100 µM (inactive); in assay [13], > 100 µM (inactive); in [14], > 100 µM (inactive); in assay [20] it was > 100 µM (inactive). For the same compound, the GI50 in assay [15], in assay [19], in assay [16], in assay [17] and in assay [18] was > 100 µM (inactive) in each case.
